# Tests used:
# [1] = tested on: winter wheat; experiment: Test E winter wheat; type: in vivo, Triticum aestivum; settings: Preemergence
# [2] = tested on: rice; experiment: Test B flood test rice; type: in vivo, Oryza sativa
# In short: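 Each value is a visual injury score relative to controls, with 10 meaning complete control and 0 no effect. Evaluation took place twelve to sixteen days after the 2-leaf-stage plants were treated and kept in the greenhouse.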
# [3] = tested on: Italian ryegrass; experiment: Test E Italian ryegrass; type: in vivo, Lolium multiflorum; settings: Preemergence
# [4] = tested on: winter wheat; experiment: Test E winter wheat; type: in vivo, Triticum aestivum; settings: Postemergence, 0 to 100 scale
# In short: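 For postemergence, plants at the 1- to 4-leaf stage, in a 60:40 mix of sandy loam and potting mix, treated with compound formulated in a surfactant-containing non-phytotoxic solvent. Visual assessment versus untreated controls followed roughly 21–28 days in the greenhouse.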
# [5] = tested on: wild oat; experiment: Test E wild oat; type: in vivo, Avena fatua; settings: Preemergence
# [6] = tested on: crabgrass; experiment: Test B pre/postemergence crabgrass; type: in vivo, Digitaria sanguinalis
# In short: (§1)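 Herbicidal effect was estimated by eye on a ten-point control scale after plants spent twelve to sixteen days in a greenhouse following soil or foliar treatment. Foliar sprays targeted plants at one to four leaves; all doses were formulated in a non-phytotoxic solvent with surfactant.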
# [7] = tested on: wheat; experiment: Test B pre/postemergence wheat; type: in vivo, Triticum aestivum
# In short: as §1
# [8] = tested on: green foxtail; experiment: Test E green foxtail; type: in vivo, Setaria viridis; settings: Preemergence
# [9] = tested on: blackgrass; experiment: Test E blackgrass; type: in vivo, Alopecurus myosuroides; settings: Preemergence
# [10] = tested on: winter barley; experiment: Test E winter barley; type: in vivo, Hordeum vulgare; settings: Preemergence
# [11] = tested on: wild oat; experiment: Test B pre/postemergence wild oat; type: in vivo, Avena fatua
# In short: as §1
# [12] = Rate 62 g/ha, 0 to 100 scale, 0 no effect, 100 complete control
# [13] = Rate 125 g/ha, 0 to 100 scale (0 no effect, 100 complete control)
# [14] = Preemergence, Rate 62 g/ha, scale of 0 to 10 where 0 is no effect and 10 is complete control
# [15] = Preemergence, Rate 250 g/ha, scale 0 to 10, 0 is no effect, 10 is complete control
# [16] = Preemergence, Rate 500 g/ha, scale of 0 to 10 where 0 is no effect and 10 is complete control
# [17] = Rate 62 g/ha, Postemergence, scale of 0 to 10 where 0 is no effect and 10 is complete control
# [18] = Rate 125 g/ha, Postemergence, scale 0 to 10
# [19] = Rate 500 g/ha, 0 to 100 scale (0 no effect, 100 complete control)
# [20] = Postemergence, Rate 125 g/ha, scale 0 to 10, 0 is no effect, 10 is complete control
# [21] = Preemergence, Rate 62 g/ha, scale 0 to 10 (0 no effect, 10 complete control)
# [22] = Preemergence, Rate 250 g/ha, scale of 0 to 10 where 0 is no effect and 10 is complete control
# [23] = Rate 500 g/ha, Postemergence, scale 0 to 10, 0 no effect, 10 complete control
structure (smiles),measurement,setting,value
C=C(C)CCn1c(=O)on(C(=O)N(c2ccc(F)cc2)C(C)C)c1=O [Compound 199],"Plant response rating, Wheat (winter)",[1]; [12],60
same,"Plant response rating, Wheat (winter)",[1]; [13],70
same,Wheat (winter) plant response rating (0 to 100 scale),[1]; Rate 250 g/ha,50
same,Rice plant response rating,"[2]; Rate 62 g/ha, Postemergence section, flood test species, scale of 0 to 10 where 0 is no effect and 10 is complete control",0
same,Rice plant response rating,"[2]; Rate 125 g/ha, listed under Postemergence (flood test species), scale 0 to 10",0
same,"Plant response rating (0 to 10; 0 is no effect, 10 is complete control), Rice","[2]; Rate 250 g/ha, Postemergence section, flood test species",0
same,Rice plant response rating,"[2]; Rate 500 g/ha, listed under Postemergence (flood test species), scale 0 to 10",0
same,"Plant response rating, I. Ryegrass",[3]; [12],70
same,"Plant response rating, I. Ryegrass",[3]; [13],60
same,I. Ryegrass plant response rating (0 to 100 scale),[3]; Rate 250 g/ha,70
same,"Plant response rating, Wheat (winter)",[4]; Rate 62 g/ha,50
same,"Plant response rating, Wheat (winter)",[4]; Rate 125 g/ha,55
same,"Plant response rating, Wild oat",[5]; [12],60
same,"Plant response rating, Wild oat",[5]; [13],70
same,Wild oat plant response rating (0 to 100 scale),[5]; Rate 250 g/ha,80
same,Crabgrass plant response rating,[6]; [14],6
same,Crabgrass plant response rating (0 to 10 scale),"[6]; Preemergence, Rate 125 g/ha, 0 is no effect, 10 is complete control",6
same,Crabgrass plant response rating,[6]; [15],10
same,"Plant response rating, Crabgrass",[6]; [16],10
same,Crabgrass plant response rating,[6]; [17],0
same,Crabgrass plant response rating,[6]; [18],2
same,"Plant response rating (0 to 10; 0 is no effect, 10 is complete control), Crabgrass","[6]; Rate 250 g/ha, Postemergence",8
same,Crabgrass plant response rating,"[6]; Rate 500 g/ha, Postemergence, scale 0 to 10",8
same,Wheat plant response rating,[7]; [14],0
same,Wheat plant response rating,[7]; [15],0
same,"Plant response rating, Wheat",[7]; [16],0
same,Wheat plant response rating,[7]; [17],0
same,Wheat plant response rating,[7]; [18],2
same,"Plant response rating (0 to 10; 0 is no effect, 10 is complete control), Wheat","[7]; Rate 250 g/ha, Postemergence",3
same,"Plant response rating, Green foxtail",[8]; [12],100
same,"Plant response rating, Green foxtail",[8]; [13],100
same,Green foxtail plant response rating (0 to 100 scale),[8]; Rate 250 g/ha,100
same,"Plant response rating, Blackgrass",[9]; [12],60
same,"Plant response rating, Blackgrass",[9]; [13],65
same,Blackgrass plant response rating (0 to 100 scale),[9]; Rate 250 g/ha,60
same,"Plant response rating, Barley (winter)",[10]; [12],70
same,"Plant response rating, Barley (winter)",[10]; [13],70
same,Barley (winter) plant response rating (0 to 100 scale),[10]; Rate 250 g/ha,70
same,Wild oats plant response rating,[11]; [14],0
same,Wild oats plant response rating,[11]; [15],4
same,"Plant response rating, Wild oats",[11]; [16],7
same,Wild oats plant response rating,[11]; [17],0
same,Wild oats plant response rating,[11]; [18],0
same,"Plant response rating (0 to 10; 0 is no effect, 10 is complete control), Wild oats","[11]; Rate 250 g/ha, Postemergence",0
CCC(CC)n1c(=O)on(C(=O)N(c2ccccc2)C(C)C)c1=O [Compound 354],"Plant response rating, Wheat (winter)",[1]; [13],30
same,"Plant response rating, Wheat (winter)","[1]; Rate 250 g/ha, 0 to 100 scale",50
same,"Plant response rating, Wheat (winter)",[1]; [19],60
same,"Plant response rating, Rice","[2]; Postemergence (flood test), Rate 125 g/ha, scale 0 to 10, 0 is no effect, 10 is complete control",0
same,Rice plant response rating,"[2]; Rate 62 g/ha, Postemergence (flood test species), scale of 0 to 10 where 0 is no effect and 10 is complete control",0
same,"Plant response rating, Rice (0 to 10 scale, 0 is no effect, 10 is complete control)","[2]; Rate 62 g/ha, flood test species, Pre-emergence, visual evaluation after twelve to sixteen days",0
same,Rice plant response rating,"[2]; Rate 125 g/ha, Pre-emergence, flood test species, scale 0 to 10 where 0 is no effect and 10 is complete control",0
same,Rice plant response rating,"[2]; Rate 250 g/ha, Pre-emergence, flood-test species, scale 0 to 10, 0 is no effect, 10 is complete control",0
same,"Plant response rating, Rice","[2]; Rate 500 g/ha, listed under Postemergence (flood test species), scale 0 to 10, 0 no effect, 10 complete control",2
same,Rice plant response rating,"[2]; Rate 500 g/ha, Pre-emergence, flood test species, scale 0 to 10 (0 no effect, 10 complete control)",0
same,"Plant response rating, I. Ryegrass",[3]; [13],50
same,"Plant response rating, I. Ryegrass","[3]; Rate 250 g/ha, 0 to 100 scale",60
same,"Plant response rating, I. Ryegrass",[3]; [19],90
same,"Plant response rating, Wheat (winter)","[4]; Rate 125 g/ha, 0 is no effect, 100 is complete control",30
same,"Plant response rating, Wheat (winter)","[4]; Rate 250 g/ha, 0 is no effect, 100 is complete control",40
same,"Plant response rating, Wheat (winter)","[4]; Rate 500 g/ha, 0 is no effect, 100 is complete control",50
same,"Plant response rating, Wild oat",[5]; [13],0
same,"Plant response rating, Wild oat","[5]; Rate 250 g/ha, 0 to 100 scale",30
same,"Plant response rating, Wild oat",[5]; [19],40
same,"Plant response rating, Crabgrass",[6]; [20],2
same,"Plant response rating, Crabgrass",[6]; [21],9
same,Crabgrass plant response rating (0 to 10 scale),"[6]; Preemergence, Rate 125 g/ha",9
same,Crabgrass plant response rating,[6]; [22],9
same,Crabgrass plant response rating,[6]; [16],10
same,Crabgrass plant response rating,[6]; [17],0
same,"Plant response rating, Crabgrass",[6]; [23],3
same,"Plant response rating, Wheat",[7]; [20],0
same,"Plant response rating, Wheat",[7]; [21],0
same,Wheat plant response rating (0 to 10 scale),"[7]; Preemergence, Rate 125 g/ha",0
same,Wheat plant response rating,[7]; [22],0
same,Wheat plant response rating,[7]; [16],2
same,Wheat plant response rating,[7]; [17],0
same,"Plant response rating, Wheat",[7]; [23],0
same,"Plant response rating, Green foxtail",[8]; [13],85
same,"Plant response rating, Green foxtail","[8]; Rate 250 g/ha, 0 to 100 scale",80
same,"Plant response rating, Green foxtail",[8]; [19],100
same,"Plant response rating, Blackgrass",[9]; [13],50
same,"Plant response rating, Blackgrass","[9]; Rate 250 g/ha, 0 to 100 scale",55
same,"Plant response rating, Blackgrass",[9]; [19],30
same,"Plant response rating, Barley (winter)",[10]; [13],20
same,"Plant response rating, Barley (winter)","[10]; Rate 250 g/ha, 0 to 100 scale, 0 no effect, 100 complete control",30
same,"Plant response rating, Barley (winter)",[10]; [19],40
same,"Plant response rating, Wild oats",[11]; [20],0
same,"Plant response rating, Wild oats",[11]; [21],0
same,Wild oats plant response rating (0 to 10 scale),"[11]; Preemergence, Rate 125 g/ha",4
same,Wild oats plant response rating,[11]; [22],6
same,Wild oats plant response rating,[11]; [16],8
same,Wild oats plant response rating,[11]; [17],0
same,"Plant response rating, Wild oats",[11]; [23],3

# — patent US6737383B1, “Herbicidal oxadiazolidines” (priority 1999, dated 2004)
